Data on two compounds can be found in patent US20220090096A1 (priority 2019, published 2022).

In one data set the test system is Clostridium spp. To be noted: cited from earlier work.
The subject of data set [1] is Pfdx-rbG-botR-T1-Pntnh-catP construct integrated in the pyrE locus. Format: cell-based, C. botulinum ATCC 19397 ΔClA.

As for `Cc1c2c(c(O)c3c(O)cccc13)C(=O)[C@]1(O)C(=O)C(C(N)=O)=C(O)[C@@H](N(C)C)[C@@H]1C2` [anhydrotetracycline], in the data set with Clostridium spp., the “effect on cell growth” value is listed as “significant inhibitory effects on cell growth”. With `Cn1c(=O)c2[nH]cnc2n(C)c1=O` [theophylline], the “CAT expression upon induction relative to absence of theophylline” value in data set [1] is listed as “approximately 7 fold”.
